Values after ≈ are worked out from the molar mass of the structure shown. Numbered stars: 1 amine (or outer) side, 2 acyl side, 3 side chain; on linkers, the order of the positions; unused ones are H or OH. Bridge positions count the residues as written; N and C are the ends. Square brackets hold non-standard residues; d marks the D form. Peptide text beside a SMILES is read from it. * marks the point of attachment. NMePhe(4-NMe2) = CN[C@@H](Cc1ccc(N(C)C)cc1)C(=O)O; X1 = O=C([C@@H]1CC=C(CN2CCOCC2)CN1[*:1])[*:2]; Picolinoyl(3-OH) = O=C(c1ncccc1O)*; Phg = N[C@H](C(=O)O)c1ccccc1; dAbu = CC[C@@H](N)C(=O)O Some results are limits rather than exact numbers.

The assay has as its system T1, Paenibacillus sp. LC231.
T1 construct: LC231
As to the kind of experiment: microbe, parasite or virus in culture. More on the design: antibacterial susceptibility, minimal inhibitory concentration (quantitative antibiogram). The text has this: We generated a quantitative antibiogram for Paenibacillus sp. LC231 for 40 different antibiotics that target diverse cellular processes and compared it with the susceptibility of a surface strain of Paenibacillus lautus ATCC 43898, the pathogen Staphylococcus aureus RN4220 and the environmental bacterium Kocuria rhizophila (formerly identified as Micrococcus luteus) (Supplementary Tables 1 and 2). […] Further experiments in this study investigate the molecular basis of resistance and not the contribution of each genetic determinant to the resistance phenotype of Paenibacillus sp. LC231. […] We focused our investigation on Paenibacillus sp. LC231 and determined that in addition to resistance to 14 classes of antibiotic, it inactivates 7 distinct classes.
Turning to `N=C1NCCC([C@@H]2NC(=O)/C(=C/NC(N)=O)NC(=O)[C@H](CNC(=O)CC(N)CCCN)NC(=O)[C@H](CO)NC(=O)[C@@H](N)CNC2=O)N1` (mixture of isomers) [capreomycin], the MIC worked out at 32 µg/mL. Compound `NCC[C@H](O)C(=O)N[C@@H]1C[C@H](N)[C@@H](O[C@H]2O[C@H](CN)[C@@H](O)[C@H](O)[C@H]2O)[C@H](O)[C@H]1O[C@H]1O[C@H](CO)[C@@H](O)[C@H](N)[C@H]1O` [Amikacin] had an MIC of 16 µg/mL (≈ 27.3 µM).

`CC1(C)S[C@@H]2[C@H](NC(=O)[C@H](N)c3ccccc3)C(=O)N2[C@H]1C(=O)O` [Ampicillin] came in with an MIC of 8 µg/mL (≈ 22.9 µM). The same measure for `CN[C@@H]1[C@@H](O[C@H]2O[C@H](CO)[C@@H](N)[C@H](O)[C@H]2O)O[C@H]2C[C@@H](N)[C@@H](O[C@H]3[C@H](O)[C@@H](O)[C@H](N)C[C@@H]3N)O[C@@H]2[C@@H]1O` [Apramycin]: 8 µg/mL (≈ 14.8 µM); for `CC[C@H]1OC(=O)[C@H](C)[C@@H](O[C@H]2C[C@@](C)(OC)[C@@H](O)[C@H](C)O2)[C@H](C)[C@@H](O[C@@H]2O[C@H](C)C[C@H](N(C)C)[C@H]2O)[C@](C)(O)C[C@@H](C)CN(C)[C@H](C)[C@@H](O)[C@]1(C)O` [Azithromycin]: 16 µg/mL (≈ 21.4 µM). In the case of `CO/N=C(\C(=O)N[C@@H]1C(=O)N2C(C(=O)O)=C(COC(C)=O)CS[C@H]12)c1csc(N)n1` [Cefotaxime] it was 2 µg/mL (≈ 4.39 µM); in that of `CC1=C(C(=O)O)N2C(=O)[C@@H](NC(=O)[C@H](N)c3ccccc3)[C@H]2SC1` [Cephalexin], no less than 128 µg/mL. The same measure for `O=C(O)c1cn(C2CC2)c2cc(N3CCNCC3)c(F)cc2c1=O` [Ciprofloxacin]: 0.25 µg/mL (≈ 0.754 µM). As for `CC[C@H]1OC(=O)[C@H](C)[C@@H](O[C@H]2C[C@@](C)(OC)[C@@H](O)[C@H](C)O2)[C@H](C)[C@@H](O[C@@H]2O[C@H](C)C[C@H](N(C)C)[C@H]2O)[C@](C)(OC)C[C@@H](C)C(=O)[C@H](C)[C@@H](O)[C@]1(C)O` [Clarithromycin], the MIC came to 0.25 µg/mL (≈ 0.334 µM). Compound `CCC[C@@H]1C[C@@H](C(=O)N[C@@H]([C@H]2O[C@H](SC)[C@H](O)[C@@H](O)[C@H]2O)[C@H](C)Cl)N(C)C1` [Clindamycin] displayed an MIC of 16 µg/mL (≈ 37.6 µM). The same measure for `CC[C@H]1OC(=O)[C@H](C)[C@@H](O[C@H]2C[C@@](C)(OC)[C@@H](O)[C@H](C)O2)[C@H](C)[C@@H](O[C@@H]2O[C@H](C)C[C@H](N(C)C)[C@H]2O)[C@](C)(O)C[C@@H](C)C(=O)[C@H](C)[C@@H](O)[C@]1(C)O` [Erythromycin]: 2 µg/mL (≈ 2.73 µM); for `CC1=C\[C@@H](O)C[C@@H](F)Cc2nc(co2)C(=O)N2CCC[C@@H]2C(=O)O[C@H](C(C)C)[C@H](C)/C=C/C(=O)NC\C=C\1` [Flopristin]: 32 µg/mL (≈ 60.2 µM). In the case of `C[C@@H]1O[C@@H]1P(=O)(O)O` [Fosfomycin] it was no less than 128 µg/mL.

`CC(=O)O[C@H]1C[C@@]2(C)[C@@H](C[C@@H](O)[C@H]3[C@@]4(C)CC[C@@H](O)[C@@H](C)[C@@H]4CC[C@@]32C)/C1=C(\CCC=C(C)C)C(=O)O` [Fusidic acid] returned an MIC of 8 µg/mL (≈ 15.5 µM). In the case of `CNC(C)[C@@H]1CC[C@@H](N)[C@@H](O[C@H]2[C@H](O)[C@@H](O[C@H]3OC[C@](C)(O)[C@H](NC)[C@H]3O)[C@H](N)C[C@@H]2N)O1` (stereo partly drawn) [Gentamicin] it was 2 µg/mL (≈ 4.19 µM). The same measure for `NC[C@H]1O[C@H](O[C@H]2[C@H](O)[C@@H](O[C@H]3O[C@H](CO)[C@@H](O)[C@H](N)[C@H]3O)[C@H](N)C[C@@H]2N)[C@H](O)[C@@H](O)[C@@H]1O` [Kanamycin]: no less than 128 µg/mL. Regarding `C[C@H]1COc2c(N3CCN(C)CC3)c(F)cc3c(=O)c(C(=O)O)cn1c23` [Levofloxacin], the MIC is 0.25 µg/mL (≈ 0.692 µM). As for `CC(=O)NC[C@H]1CN(c2ccc(N3CCOCC3)c(F)c2)C(=O)O1` [Linezolid], the MIC came out at 1 µg/mL (≈ 2.96 µM). The same measure for `C[C@@H](O)[C@H]1C(=O)N2C(C(=O)O)=C(S[C@@H]3CN[C@H](C(=O)N(C)C)C3)[C@H](C)[C@H]12` [Meropenem]: 2 µg/mL (≈ 5.22 µM); for `C/C(=C\C(=O)OCCCCCCCCC(=O)O)C[C@@H]1OC[C@H](C[C@@H]2O[C@H]2[C@@H](C)[C@H](C)O)[C@@H](O)[C@H]1O` [Mupirocin]: no less than 100 µg/mL; for `CCn1cc(C(=O)O)c(=O)c2ccc(C)nc21` [Nalidixic acid]: 4 µg/mL (≈ 17.2 µM). The same measure for `NC[C@@H]1O[C@H](O[C@H]2[C@@H](O)[C@H](O[C@@H]3[C@@H](O)[C@H](N)C[C@H](N)[C@H]3O[C@H]3O[C@H](CN)[C@@H](O)[C@H](O)[C@H]3N)O[C@@H]2CO)[C@H](N)[C@@H](O)[C@@H]1O` [Neomycin]: 2 µg/mL (≈ 3.25 µM); for `CO[C@@H]1[C@@H](OC(N)=O)[C@@H](O)[C@H](Oc2ccc3c(O)c(NC(=O)c4ccc(O)c(CC=C(C)C)c4)c(=O)oc3c2C)OC1(C)C` [Novobiocin]: 0.25 µg/mL (≈ 0.408 µM). Compound `CN[C@@H]1[C@H](O)[C@H](NC)[C@H]2O[C@@]3(O)C(=O)C[C@@H](C)O[C@H]3O[C@@H]2[C@H]1O` [Spectinomycin] came in with an MIC of no less than 128 µg/mL.

`CN[C@@H]1[C@H](O[C@H]2[C@H](O[C@H]3[C@H](O)[C@@H](O)[C@H](N=C(N)N)[C@@H](O)[C@@H]3N=C(N)N)O[C@@H](C)[C@]2(O)C=O)O[C@@H](CO)[C@H](O)[C@H]1O` [Streptomycin] registered an MIC of no less than 128 µg/mL.

The compound `CC[C@H]1OC(=O)[C@H](C)C(=O)[C@H](C)[C@@H](O[C@@H]2O[C@H](C)C[C@H](N(C)C)[C@H]2O)[C@](C)(OC)C[C@@H](C)C(=O)[C@H](C)[C@H]2N(CCCCn3cnc(-c4cccnc4)c3)C(=O)O[C@]12C` [Telithromycin] registered an MIC of 2 µg/mL (≈ 2.46 µM).

In turn, `CN(C)[C@@H]1C(O)=C(C(N)=O)C(=O)[C@@]2(O)C(O)=C3C(=O)c4c(O)cccc4[C@@](C)(O)[C@H]3C[C@@H]12` [Tetracycline] showed an MIC of no less than 128 µg/mL. The same measure for `C=C[C@]1(C)C[C@@H](OC(=O)CSCCN(CC)CC)[C@]2(C)[C@H](C)CC[C@]3(CCC(=O)[C@H]32)[C@@H](C)[C@@H]1O` [Tiamulin]: 32 µg/mL (≈ 64.8 µM); for `NC[C@H]1O[C@H](O[C@H]2[C@H](O)[C@@H](O[C@H]3O[C@H](CO)[C@@H](O)[C@H](N)[C@H]3O)[C@H](N)C[C@@H]2N)[C@H](N)C[C@@H]1O` [Tobramycin]: 32 µg/mL (≈ 68.4 µM); for `CN[C@H](CC(C)C)C(=O)N[C@H]1C(=O)N[C@@H](CC(N)=O)C(=O)N[C@H]2C(=O)N[C@H]3C(=O)N[C@H](C(=O)N[C@H](C(=O)O)c4cc(O)cc(O)c4-c4cc3ccc4O)[C@H](O)c3ccc(c(Cl)c3)Oc3cc2cc(c3O[C@@H]2O[C@H](CO)[C@@H](O)[C@H](O)[C@H]2O[C@H]2C[C@](C)(N)[C@H](O)[C@H](C)O2)Oc2ccc(cc2Cl)[C@H]1O` [Vancomycin]: 1 µg/mL (≈ 0.69 µM).

`O=C(N[C@H](CO)[C@H](O)c1ccc([N+](=O)[O-])cc1)C(Cl)Cl` [chloramphenicol] yielded an MIC of 32 µg/mL (≈ 99 µM).

In turn, `CC[C@H]1NC(=O)[C@@H](NC(=O)c2ncccc2O)[C@@H](C)OC(=O)[C@H](c2ccccc2)NC(=O)[C@@H]2CC=C(CN3CCOCC3)CN2C(=O)[C@H](Cc2ccc(N(C)C)cc2)N(C)C(=O)[C@@H]2CCCN2C1=O` [linopristin] ({Picolinoyl(3-OH)}-T[dAbu]P[NMePhe(4-NMe2)][X1][Phg]; ester 1-C) gave an MIC of 64 µg/mL (≈ 67.4 µM). The same measure for `CO[C@H]1/C=C/O[C@@]2(C)Oc3c(C)c(O)c4c(O)c(c(/C=N/N5CCN(C)CC5)c(O)c4c3C2=O)NC(=O)/C(C)=C\C=C\[C@H](C)[C@H](O)[C@@H](C)[C@@H](O)[C@@H](C)[C@H](OC(C)=O)[C@@H]1C` [rifampin]: 1 µg/mL (≈ 1.22 µM).

(Values after article PMC5155152, “A diverse intrinsic antibiotic resistome from a cave bacterium” (Nature Communications, 2016).)
